Assay results taken from patent US6294573A, “Reverse hydroxamate inhibitors of matrix metalloproteinases” (Abbott Laboratories, priority 2000, dated 2001).
pIC50: −log10 of the molar value.

Target: T1, Recombinant truncated stromelysin (human sequence) (Homo sapiens, UniProt P08254)
T1 construct: made in house; host or cells: E. coli
Assay: Inhibition of stromelysin (cleavage of thiopeptide ester substrate, DTNB readout at 405 nm)
Type: biochemical
Settings: 30 minute assay, ambient temperature, pH 6.5, thiopeptide ester substrate
Description: The efficacy of the compounds of this invention as matrix metalloproteinase inhibitors was determined by measuring the inhibition of stromelysin. The inhibition of stromelysin by the compounds of this invention was determined as follows: Recombinant truncated stromelysin (human sequence) produced in E. coli was prepared by expression and purification of the protein as described by Ye et al. (Biochemistry, 1992, 31, 11231-11235, which is incorporated herein by reference). The enzyme was assayed by its cleavage of the thiopeptide ester substrate Ac-Pro-Leu-Gly-[2-mercapto-4-methylpentanoyl]-Leu-Gly-OEt as described by Weingarten and Feder (Anal. Biochem., 1985, 147, 437-440 (1985), which is incorporated herein by reference) as a substrate of vertebrate collagenase. The reported conditions were modified to allow assays to be carried out in a microtiter plate. Upon hydrolysis of the thioester bond, the released thiol group reacted rapidly with 5,5'-dithio-bis(2-nitrobenzoic acid) (DTNB) to produce a yellow color which was measured by a microtiter plate reader set at 405 nm. The rates of cleavage of the substrate by stromelysin in the presence or absence of inhibitors were measured in a 30 minute assay at ambient temperature. […] The potency of the compounds [IC50 ] was calculated from the inhibition/inhibitor concentration data.

T1 sequence (P08254 100-273 limits assumed): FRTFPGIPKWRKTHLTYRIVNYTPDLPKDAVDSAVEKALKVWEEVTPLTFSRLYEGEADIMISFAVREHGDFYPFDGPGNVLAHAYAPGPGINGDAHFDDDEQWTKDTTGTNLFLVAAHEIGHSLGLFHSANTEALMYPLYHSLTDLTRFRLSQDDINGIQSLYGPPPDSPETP

## CN1C(=O)N(CCC(COc2ccc(-c3ccc(C#N)cc3)cc2)N(O)C=O)C(=O)C1(C)C (racemic) [Example 5, (±)-N-[1-[[(4'-cyano-[1,1'-biphenyl]-4-yl)oxy]methyl]-3-(3,4,4-trimethyl-2,5-dioxo-1-imidazolidinyl)propyl]-N-hydroxyformamide]
  pIC50: 7.77
